For experiment [1], the system named is Nmb-induced mechanical hypersensitivity in mice. Nature of the experiment: Nmb-induced mechanical hypersensitivity, effect of pretreatment (Figure 7C). As to conditions: intra-TG KT-5720 2 nmol prior to 1 nmol Nmb; 1 h; n = 8 - 10. Type of experiment: in vivo, mouse. The procedure:
Mice were housed on a 12 h light/dark cycle, maintained in a humidity- and temperature-controlled room with water available ad libitum and were acclimated to the experimenter for 2 d before the first behavioural observations. Experimenters were blinded to the treatment or genotypes of the mice. As described previously, [31], an Orofacial Stimulation Test (Ugo Basile, Italy) was used for the measurement of hypersensitivity to the mechanical stimulation of the trigeminal area. Briefly, the mice initially underwent one week of adaptation trainings after a 12 h fasting food period. Each mouse was then placed in a cage in which there was an Orofacial Stimulation Test system. […] The contact number and total duration of time the mouse spent acquiring the reward were analyzed with the ORO software.
For experiments that several time points are needed to be checked in 24 h, von Frey test was used, as orofacial stimulation test can be checked only once a day, [32]. […] Mechanical hypersensitivity was assessed as described in previous studies, [33]. In brief, the threshold was assessed with a set of von Frey hairs (0.02-2.56 g, Stoelting) applied to the whisker pad in an ascending series of trials, with three separate von Frey stimulations applied per series. The threshold was determined when mice moved their heads away briskly and strongly from at least one of the three stimuli. […]

In a further experiment the test system is PKA. Put plainly: PKA activity assay in TG cells (Pep Tag). Type of experiment: cell-based, mouse. As to conditions: 100 nM Nmb, 30 min; triplicate. The procedure:
PKA enzymatic activity in cell lysates was measured using the Pep Tag assay for nonradioactive detection of PKA (Promega, Madison, WI, USA) as described in our previous studies. Briefly, TG cells were cultured in 12-well plates and preincubated with BIM23042 (0.5 μM) or compound C (10 μM) followed by exposure to 100 nM Nmb for 30 min. TG cells were washed with ice-cold phosphate-buffered saline and placed on ice. PKA was extracted from the cell lysates with cold PKA extraction buffer (25 mM Tris-HCl, pH 7.4, 0.5 mM EDTA, 0.5 mM EGTA, 10 mM β-mercaptoethanol, 1 μg/mL leupeptin and 1 μg/mL aprotinin). The assay was conducted according to the manufacturer's instructions.

Experiment [2] concerns heat hypersensitivity in mice. Nature of the experiment: Heat test, head withdrawal latency (HWL). Type of experiment: in vivo, mouse. As to conditions: intra-TG 1 nmol or 5 nmol. As for the experimental part: For experiments that several time points are needed to be checked in 24 h, von Frey test was used, as orofacial stimulation test can be checked only once a day, [32]. For the von Frey test, the mice were placed in metal mesh boxes and allowed 30 min for habituation before examination. Mechanical hypersensitivity was assessed as described in previous studies, [33]. In brief, the threshold was assessed with a set of von Frey hairs (0.02-2.56 g, Stoelting) applied to the whisker pad in an ascending series of trials, with three separate von Frey stimulations applied per series. The threshold was determined when mice moved their heads away briskly and strongly from at least one of the three stimuli. Dixon's up-down method was used to determine the 50% probability of escape threshold. For thermal test, a heat stimulus was applied to the maxillary whisker pad skin by radiant heat (IITC Life Science). Heat sensitivity was expressed as head-withdrawal latency (HWL). The radiant heat intensity was adjusted so that basal HWL is between 10-15 s, with a cut-off of 18 s to prevent tissue damage. Chronic inflammatory pain was induced by subcutaneous injection of 20 μL of complete Freund's adjuvant (CFA) into the left side of the buccal pad. […]

Regarding `CCCCCCOC(=O)[C@]1(O)C[C@@H]2O[C@@]1(C)n1c3ccccc3c3c4c(c5c6ccccc6n2c5c31)C(=O)NC4` [KT-5720], the “effect on Nmb-induced mechanical hypersensitivity” value in experiment [1] was “abolished”.

Turning to Neuromedin B [Nmb], in the experiment with PKA, the PKA activity result is reported as “increase in PKA activity”. In addition, the “head withdrawal latency effect, duration” value in experiment [2] was “maintained at 3 h”. The “head withdrawal latency (HWL)” value in experiment [2] (at 1 h) is “significantly decreased the head withdrawal latency”.

These data come from paper PMC8490515, “Neuromedin B receptor stimulation of Cav3.2 T-type Ca^2+ channels in primary sensory neurons mediates peripheral pain hypersensitivity” (Theranostics, 2021).
